# Source: patent US10195156B2, “Compounds and compositions for intracellular delivery of agents” (ModernaTX, Inc., priority 2015, dated 2019)
# Key:
# [1] = Particle size and polydispersity index of nanoparticle compositions (Zetasizer Nano ZS); type: physicochemical
# Outline: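 In 1×PBS, the compositions were sized on a Zetasizer Nano ZS, which also reported their polydispersity index.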
# [2] = Encapsulation efficiency of RNA (QUANT-IT RIBOGREEN RNA assay); type: physicochemical
# Outline: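 Nanoparticle samples diluted to ~5 μg/mL RNA in TE buffer (pH 7.5), incubated with or without 2% Triton X-100 solution at 37 °C for 15 min, then RiboGreen added. Fluorescence read at ~480/520 nm, blank-subtracted; free RNA % = intact over Triton-disrupted signal.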
# [3] = pKa of nanoparticle compositions; type: physicochemical
# [4] = system: luciferase (Luc) mRNA expression; test: Expression of Luc induced by sample formulations, whole-body bioluminescence after intravenous administration; type: in vivo; details: mice, i.v., 0.5 mg/kg
# Outline: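 Mice (n=6) dosed intravenously with Luc mRNA nanoparticle formulations at 0.5 mg/kg. Whole-body bioluminescence measured at 3, 6 and 24 h. Standard MC3 formulation and PBS control run alongside.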
# [5] = system: modified luciferase expression; test: Expression of Luc in different organs (liver, lung, spleen, femur) 6 hours after intravenous administration; type: in vivo; details: i.v., 0.5 mpk
# Procedure: The efficacy of the nanoparticle compositions presented in Tables 1, 1a, 17-1, 19-1, 20-1 and 21-1 was further evaluated by measuring the expression of modified luciferase in the liver, lung, spleen, and femur upon administration of a given composition. Formulations were administered intravenously to mice (n=3) at a dosage of 0.5 mpk and bioluminescence measured after 6 hours. The standard MC3 formulation and a PBS control were also tested.
# IL-6 = test: Cytokine production induced by sample formulations: IL-6; type: in vivo; details: mice, i.v., 0.5 mpk, 6 hours, in pg/mL (unit assumed)
# Outline: (§1)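 Mice received nanoparticle formulations intravenously at 0.5 mpk, with standard MC3 formulation and PBS as controls. Cytokine concentrations were measured 6 hours after dosing.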
# IP-10 = test: Cytokine production induced by sample formulations: IP-10; type: in vivo; details: mice, i.v., 0.5 mpk, 6 hours; for IP-10: in pg/mL (unit assumed)
# Outline: as §1
# [6] = Table 1, * lipid:DSPC:Chol:PEG-DMG 50:10:38.5:1.5
# [7] = comparison amongst compositions
# [8] = Table 20-1, rows without footnote mark
# [9] = Table 1, rows without footnote mark
# [10] = Table 1, rows without footnote mark (lipid:DOPE:cholesterol:PEG-DMG 40:20:38.5:1.5, Luc mRNA; MC3 standard formulation)
Compound,IL-6 (IL-6; Table 4),IP-10 (IP-10; Table 4),"PDI [1, 8]","Size (nm) [1, 8] [nm]","EE (%) [2, 8] [%]","pKa [3, 8]","IL-6 (IL-6; Table 20-4, formula (20-I))","IP-10 (IP-10; Table 20-4, formula (20-I))","Total Flux 3 hours ([4]; Table 2, 3 hours)",Total Flux 6 hours ([4]; Table 2),Total Flux 24 hours ([4]; Table 2),"Total Flux Liver ([5]; Table 3, mice, liver)","Total Flux Lung ([5]; Table 3, mice)","Total Flux Spleen ([5]; Table 3, mice)","Total Flux 3 hours ([4]; Table 20-2, 3 hours)",Total Flux 6 hours ([4]; Table 20-2),Total Flux 24 hours ([4]; Table 20-2),"Total Flux Liver ([5]; Table 20-3, mice, liver)","Total Flux Lung ([5]; Table 20-3, mice)","Total Flux Spleen ([5]; Table 20-3, mice)",other results
"CCCCC/C=C\C/C=C\CCCCCCCCN(CCCCCCCC/C=C\C/C=C\CCCCC)CCN(CCCCCCCC/C=C\C/C=C\CCCCC)CCN1CCN(CCN(CCCCCCCCCCCC)CCCCCCCCCCCC)CC1 [Compound 34, N^1-(2-(4-(2-(Didodecylamino)ethyl)piperazin-1-yl)ethyl)-N^1,N^2,N^2-tri((9Z,12Z)-octadeca-9,12-dien-1-yl)ethane-1,2-diamine]",28,159,–,–,–,–,–,–,7.77E+06,1.88E+07,2.19E+06,2.79E+06,5.63E+04,1.22E+06,–,–,–,–,–,–,"Size (nm) ([1]; Table 1, * formulated with lipid:DSPC:Chol:PEG-DMG 50:10:38.5:1.5): 66.0 nm; PDI [1, 6]: 0.077; particle size, rank within the named table (in words) [1, 7]: smallest particles; EE (%) [2, 6]: 98.1%; pKa [3, 6]: 5.74"
"CCCCCCCCCCCCN(CCCCCCCCCCCC)CCN(CCCCCCCCCCCC)CCN1CCN(CCN(CCCCCC)CCCCCC)CC1 [Compound 21, N^1-(2-(4-(2-(Dihexylamino)ethyl)piperazin-1-yl)ethyl)-N^1,N^2,N^2-tridodecylethane-1,2-diamine]",48,652,–,–,–,–,–,–,1.13E+10,1.08E+10,1.18E+08,1.24E+09,2.51E+06,1.17E+07,–,–,–,–,–,–,"PDI [1, 9]: 0.239; Size (nm) [1, 10]: 98.3 nm; EE (%) [2, 9]: 98.6%; pKa [3, 9]: 6.29"
"CCCCCCCCCCCCN(CCCCCCCCCCCC)CCN1CCN(CCN(CCCCCC)CCN(CCCCCC)CCCCCC)CC1 [Compound 17, N^1-(2-(4-(2-(Didodecylamino)ethyl)piperazin-1-yl)ethyl)-N^1,N^2,N^2-trihexylethane-1,2-diamine]",164,545,–,–,–,–,–,–,7.55E+09,2.49E+09,7.61E+08,4.26E+08,7.26E+05,3.20E+06,–,–,–,–,–,–,"PDI [1, 9]: 0.180; Size (nm) [1, 10]: 82.3 nm; EE (%) [2, 9]: 96.6%; pKa [3, 9]: 6.67; Total Flux Femur ([5]; Table 3, mice): 6.71E+05"
"CCCCC/C=C\C/C=C\CCCCCCCCN(CCO)CCCCCCCCCCCCCCCCCC [Compound 17-6, 2-(((9Z,12Z)—Octadeca-9,12-dien-1-yl)(octadecyl)amino)ethan-1-ol]",–,–,–,–,–,–,–,–,–,–,–,–,–,–,–,–,–,–,–,–,"PDI ([1]; Table 17-1): 0.117; Size (nm) ([1]; Table 17-1): 80.2 nm; EE (%) ([2]; Table 17-1): 97.3%; encapsulation efficiency, rank within the named table (in words) [2, 7]: comparable to that for MC3; pKa ([3]; Table 17-1): 6.73; Total Flux 3 hours ([4]; Table 17-2, 3 hours): 6.27E+07; Total Flux 6 hours ([4]; Table 17-2): 1.19E+08; Total Flux 24 hours ([4]; Table 17-2): 1.27E+07; Total Flux Liver ([5]; Table 17-3, mice, liver): 2.16E+07; Total Flux Lung ([5]; Table 17-3, mice): 1.54E+05; Total Flux Spleen ([5]; Table 17-3, mice): 9.06E+05; IL-6 (IL-6; Table 17-4): 25.0; IP-10 (IP-10; Table 17-4): 134"
"CCCCCCCCCN(CCCCCCCCC)CCN1CCNCC1 [Compound 19-1, N-Nonyl-N-(2-(piperazin-1-yl)ethyl)nonan-1-amine]",–,–,–,–,–,–,–,–,–,–,–,–,–,–,–,–,–,–,–,–,"PDI ([1]; Table 19-1): 0.071; Size (nm) ([1]; Table 19-1): 98.0 nm; EE (%) ([2]; Table 19-1): 83.4%; pKa ([3]; Table 19-1): 6.76; Total Flux 3 hours ([4]; Table 19-2, 3 hours): 6.77E+05; Total Flux 6 hours ([4]; Table 19-2): 1.85E+06; Total Flux 24 hours ([4]; Table 19-2): 2.75E+05; Total Flux Liver ([5]; Table 19-3, mice, liver): 8.53E+05; Total Flux Lung ([5]; Table 19-3, mice): 1.06E+04; Total Flux Spleen ([5]; Table 19-3, mice): 1.58E+04; IL-6 (IL-6; Table 19-4): 144.4; IP-10 (IP-10; Table 19-4): 51.1; IP-10 induction, rank or comparison with IL-6 (in words) (IP-10): lowest IP-10 expression"
"CCCCC/C=C\C/C=C\CCCCCCCCN(CCCCCCCC/C=C\C/C=C\CCCCC)CCN1CCN(CCN(CCCCCCCCCCCC)CCN(CCCCCCCCCCCC)CCCCCCCCCCCC)CC1 [Compound 29, N^1-(2-(4-(2-(Di((9Z,12Z)-octadeca-9,12-dien-1-yl)amino)ethyl)piperazin-1-yl)ethyl)-N^1,N^2,N^2-tridodecylethane-1,2-diamine]",108,3454,–,–,–,–,–,–,1.22E+08,2.51E+08,2.69E+07,2.27E+07,4.70E+05,2.97E+06,–,–,–,–,–,–,"PDI [1, 9]: 0.060; Size (nm) [1, 10]: 105.3 nm; EE (%) [2, 9]: 48.8%; pKa [3, 9]: 5.97"

# Now from value to molecule, other results behind:
IL-6 (IL-6; Table 4),IP-10 (IP-10; Table 4),"PDI [1, 8]","Size (nm) [1, 8] [nm]","EE (%) [2, 8] [%]","pKa [3, 8]","IL-6 (IL-6; Table 20-4, formula (20-I))","IP-10 (IP-10; Table 20-4, formula (20-I))",Compound,"Total Flux 3 hours ([4]; Table 2, 3 hours)",Total Flux 6 hours ([4]; Table 2),Total Flux 24 hours ([4]; Table 2),"Total Flux Liver ([5]; Table 3, mice, liver)","Total Flux Lung ([5]; Table 3, mice)","Total Flux Spleen ([5]; Table 3, mice)","Total Flux 3 hours ([4]; Table 20-2, 3 hours)",Total Flux 6 hours ([4]; Table 20-2),Total Flux 24 hours ([4]; Table 20-2),"Total Flux Liver ([5]; Table 20-3, mice, liver)","Total Flux Lung ([5]; Table 20-3, mice)","Total Flux Spleen ([5]; Table 20-3, mice)",other results
–,–,0.170,73.6,92.4,6.66,24.5,696.3,"CCCCCCCCCCCCN(CCO)CCN(CCCCCCCCCCCC)CCCCCC(=O)OCCCCCCC [Compound 20-7, Heptyl 6-(dodecyl(2-(dodecyl(2-hydroxyethyl)amino)ethyl)amino)hexanoate]",–,–,–,–,–,–,1.22E+10,8.94E+09,2.65E+08,1.00E+09,1.38E+07,4.58E+07,"total flux after 3 hours, rank within the named table (in words) ([4]; 3 hours): highest after 3 hours; total flux in the liver, rank within the named table (in words) ([5]; mice, liver): highest"
–,–,0.057,74.3,97.7,5.83,87.8,70.0,"CCCCC/C=C\C/C=C\CCCCCCCCN(CCCCCCCC/C=C\C/C=C\CCCCC)CCN(CCO)CCCCCCCCCCCC [Compound 20-13, 2-((2-(Di((9Z,12Z)-octadeca-9,12-dien-1-yl)amino)ethyl)(dodecyl)amino)ethan-1-ol]",–,–,–,–,–,–,7.01E+08,1.82E+09,7.39E+07,1.65E+08,9.09E+05,1.04E+07,"Total Flux Femur ([5]; Table 20-3, mice): 3.11E+05"
–,–,0.210,119.3,78.1,6.79,140.8,2012.3,"CCCCCCCOC(=O)CCCCCN(CCO)CCN(CCCCCC(=O)OCCCCCCC)CCCCCC(=O)OCCCCCCC [Compound 20-5, Diheptyl 6,6′-((2-((6-(heptyloxy)-6-oxohexyl)(2hydroxyethyl)amino)ethyl)azanediyl)dihexanoate]",–,–,–,–,–,–,6.07E+07,1.99E+07,2.07E+06,2.67E+06,5.80E+04,3.40E+06,"Total Flux Femur ([5]; Table 20-3, mice): 9.53E+04"
–,–,0.238,78.6,84.7,5.78,68.4,900.4,"CCCCCCCCCCCCN(CCCO)CCN(CCCCCCCCCCCC)CCCCCCCCCCCC [Compound 20-21, 3-((2-(Didodecylamino)ethyl)(dodecyl)amino)propan-1-ol]",–,–,–,–,–,–,1.43E+09,1.02E+09,1.13E+08,1.27E+08,1.98E+05,2.20E+06,–
